According to EP0603240B1, “SAFENING HERBICIDAL PYRAZOLYLSULFONYLUREAS” (priority 1991, dated 1993):

Experiments:
[1] = test system: corn; test: Example 15, Procedure II: Herbicide No. 1 + butylate (No. 10) with antidotes; assay type: in vivo; conditions: for safening of corn, assessment in words: Herbicide No. 1 1.12 and 0.56 kg/ha + Herbicide No. 10 6.72 kg/ha PPI, Table 15
Procedure: (§1) Containers were filled and compacted with a fumigated silt loam top soil to a depth of about 1.3 cm from the top of the container. A first container was designated as an untreated control, a second container was designated as a herbicide control, and a third container was designated as a herbicide + antidote test container. Each of the containers was seeded with a crop species. A measured amount of herbicide dispersed or dissolved in acetone was applied to a measured quantity of soil. To this same quantity of soil treated with herbicide, there was added a measured amount of antidote dispersed or dissolved in acetone. The quantity of soil treated with the herbicide and antidote was thoroughly mixed to incorporate the herbicide and antidote in the soil uniformly. The seed bed in the third container of soil was covered with the soil treated with the herbicide and antidote and the container was leveled. For each test series, the seed beds of the first and second containers were likewise covered by soil layers. the cover layer of the first container was not treated with herbicide or antidote.
(§2) The containers were then placed on a bench in a greenhouse and sub-irrigated as required for the duration of the test. […] Plant response is measured in terms of percent injury. Antidote efficacy is indicated as the difference in plant injury by the herbicide(s) without the antidote and with the antidote.
(§3) This procedure is the same as Procedure I, but modified in the manner that after incorporation of the chemicals (herbicide and antidote) the containers with the covered seedbed were treated with an initial overhead irrigation equivalent to 0.6 cm rainfall, then subsequently sub-irrigated as required on greenhouse benches.
This example describes experiments designed to investigate the antidotal efficacy of a plurality of antidotes against the herbicidal action of a combination of Herbicide No. 1 and butylate in corn and the prevalent weeds barnyardgrass and velvetleaf. The antidotes used in these experiments were Nos. 1-10, 12, 13 and 15.
The test procedure used in these experiments was that of Procedure II described above. The antidotes were applied to a soil cover layer by pipet after spraying the herbicides onto the soil, followed by incorporation and overhead irrigation.

[2] = test system: corn; test: Example 13, Procedure II: Herbicide No. 1 + acetochlor (No. 6) with dichloroacetamide antidotes; assay type: in vivo; conditions: in vivo
Procedure: as §1, §2, §3
In this example a plurality of dichloroacetamide antidotes were tested for their safening efficacy against a herbicidal composition comprising Herbicide No. 1 and a co-herbicide, acetochlor (Herbicide No. 6) in corn in the presence of velvetleaf. The procedure used in this example was Procedure II above.

[3] = test system: corn; test: Example 12, Procedure II: Herbicide No. 1 + acetochlor (No. 6) with thirteen antidotes; assay type: in vivo
Procedure: as §1, §2, §3
This example was designed to investigate the efficacy of thirteen different antidotes from different classes of chemistry as safeners against compositions of Herbicide No. 1 and acetochlor (Herbicide No. 6) as co-herbicide. Acetochlor is the active ingredient in the commercial herbicides GUARDIAN® and WENNER®.
The test procedure used in this example was Procedure II described above.

[4] = test system: corn; test: Example 9, Procedure II: Herbicide No. 1 + pretilachlor (No. 13) with antidotes; assay type: in vivo
Procedure: as §1, §2, §3
(§4) In this example the safening effect on a composition comprising Herbicide No. 1 and another leading rice herbicide, i.e., Herbicide No. 13, was investigated using the same antidotes and test procedure described in the preceding example. Herbicide No. 13 is pretilachlor, active ingredient used in the commercial rice herbicides RIFIT®, SOFIT® and SOFIT® SUPER.

[5] = test system: barnyardgrass (Echinochloa crusgalli); test: as above; assay type: in vivo; conditions: Herbicide No.13 2.24 kg/ha alone, no antidote
Procedure: as §1, §2, §3
(§5) In the series of greenhouse tests described below, for routine screening purposes the herbicide/antidote compositions were tested in crop/weed combinations involving corn as the crop and either or both of the weeds barnyardgrass (Echinochloa crusgalli), a monocotyledonous weed, and velvetleaf (Abutilon theophrasti), a dicotyledonous weed. In the tables below, these weeds are indicated by the symbols "BYG" and "VL", respectively.
as §4

[6] = test system: velvetleaf (Abutilon theophrasti); test: as above; assay type: in vivo; conditions: Herbicide No.13 2.24 kg/ha alone, no antidote
Procedure: as §1, §2, §3, §5, §4

[7] = test system: corn; test: Example 25, greenhouse post-emergence test: Antidote Nos. 1 and 2 against Herbicide Nos. 1-3; assay type: in vivo, Corn (Pioneer 3424 variety); conditions: Herbicide Nos. 1-3
Procedure: Additional tests were conducted in the greenhouse in order to evaluate the antidotal efficacy of Antidote Nos. 1 (dichlormid) and 2 (naphthalic anhydride) in protecting corn from the herbicidal activity of Herbicide Nos. 1-3 (i.e., NC-319, NC-319 EX and NC-311, respectively). The chemicals were tested in both preemergence and post-emergence modes of application. The herbicides were prepared and applied as wettable powders; dichlormid was applied as an emulsifiable concentrate, while the naphthalic anhydride was applied as a coating on the corn seed prior to planting.
Corn seeds (Pioneer 3424 variety) were planted in alluvial soil containing compost and fertilizer in pots 12 cm. in diameter. Test chemicals were applied with a spray gun at the spray volume rate of 11.2 l/ha at the time of seeding in the preemergence tests and seven (7) days after seeding in the post-emergence tests, when the check (control) plants were at the 16-20 cm., 3.0-3.2 leaf stage, and naphthalic anhydride coated seed grown plants were at the 14-16 cm., 2.8-3.0 leaf stage.
(§6) Test data from the preemergence tests are shown in Table 25A and from the post-emergence tests in Table 25B. In the tables, the concentration of chemicals is shown in terms of active ingredient in grams per hectare (G/ha); concentrations of the naphthalic anhydride were not measured per se, but were present as in conventional, normally-coated applications. Corn injury is shown in terms of percent inhibition of growth.

[8] = test system: corn; test: Example 5, Procedure I: Herbicide No. 1 + alachlor (No. 7) with Antidote Nos. 15 and 16; assay type: in vivo; conditions: Herbicide No.1 6.72 + No.7 2.24 kg/ha + antidote 2.24 kg/ha
Procedure: as §1, §2
This example describes tests with Antidote Nos. 15 and 16 to safen Herbicide No. 1 according to Procedure I using corn and the weeds barnyardgrass and velvetleaf as the test plants.
In the tests described in this example, the same procedure described in Example 4 was performed simultaneously therewith and under the same conditions, except that a co-herbicide, alachlor, was included in the same composition with Herbicide No. 1 and Antidote Nos. 15 and 16. Alachlor (Herbicide No. 7 herein) is the active ingredient in the commercial product LASSO® herbicide.

[9] = test system: corn; test: Example 19, Procedure II: Herbicide No. 1 + ERADICANE EXTRA with added antidotes; assay type: in vivo; conditions: for corn injury: Herbicide No. 1 + ERADICANE EXTRA + added antidote, highest rates of antidotes and herbicides
Procedure: as §1, §2, §3
(§7) In the test reported in this example, the herbicidal composition was similar to that used in Example 16 in that Herbicide No. 1 was combined with EPTC (Herbicide No. 4) as a co-herbicide and the antidotes included Nos. 1, 2, 7, 13 and 15. However, in this test the EPTC was introduced as a formulation of ERADICANE (EPTC + the antidote R-25788, i.e., Antidote No. 1) at an application rate of 8.96 kg/ha. Thus, in this test two antidotes were present, viz. R-25788 and one of the auxilliary antidotes, No. 2, 13 and 15.
The test reported in this example was performed in the same manner and with the same antidotes used in Example 18, the only difference being the substitution of the commercial herbicidal product ERADICANE® EXTRA for ERADICANE®. ERADICANE EXTRA is a formulation containing both an antidote, i.e., R-29148 (Antidote No. 5 herein), and an extender, dietholate.

[10] = test system: corn; test: Example 25, greenhouse preemergence test: Antidote Nos. 1 and 2 against Herbicide Nos. 1-3; assay type: in vivo, Corn (Pioneer 3424 variety); conditions: preemergence
Procedure: The chemicals were tested in both preemergence and post-emergence modes of application. The herbicides were prepared and applied as wettable powders; dichlormid was applied as an emulsifiable concentrate, while the naphthalic anhydride was applied as a coating on the corn seed prior to planting.
as §6

[11] = test system: corn; test: Example 7, Procedure II: Herbicide No. 1 + metolachlor (No. 12) with antidotes; assay type: in vivo
Procedure: as §1, §2, §3
(§8) In this example, Procedure II described above was followed. The data from the tests in this example is shown in Table 6 and represents averages of duplicate replications.
The tests in this example followed the same procedure and antidotes used in Example 6. However, Herbicide No. 12 (metolachlor) was used as the co-herbicide with Herbicide No. 1.

[12] = test system: corn; test: Example 11, Procedure II: Herbicide No. 1 + metazachlor (No. 14) with antidotes; assay type: in vivo; conditions: for safening of corn, assessment in words: Herbicides 1 and 14, Table 11
Procedure: as §1, §2, §3
(§9) In this example, yet another α-chloroacetanilide co-herbicide, metazachlor (Herbicide No. 14) was combined with Herbicide No. 1 for investigation of the effect of various safeners on that composition. Metazachlor is the active ingredient in the commercial herbicide BUTISAN® S, used here as a 500 g/L formulation.

[13] = test system: barnyardgrass (Echinochloa crusgalli); test: as above; assay type: in vivo; conditions: Herbicide No.14 3.36 kg/ha alone, no antidote
Procedure: as §1, §2, §3, §5, §9

[14] = test system: velvetleaf (Abutilon theophrasti); test: as above; assay type: in vivo; conditions: Herbicide No.14 3.36 kg/ha alone, no antidote
Procedure: as §1, §2, §3, §5, §9

[15] = test system: barnyardgrass (Echinochloa crusgalli); test: Example 10, Procedure II: Herbicide No. 1 + propachlor (No. 5) with antidotes; assay type: in vivo; conditions: Herbicide No.5 4.48 kg/ha alone, no antidote
Procedure: as §1, §2, §3, §5
(§10) In this test, the safening effect of various antidotes on the herbicidal combination of Herbicide No. 1 and another α-chloroacetanilide co-herbicide, propachlor, (Herbicide No. 5) was investigated. Propachlor is the active ingredient in the commercial herbicide RAMROD®. Procedure II was also used in this test as in the preceding example.

[16] = test system: velvetleaf (Abutilon theophrasti); test: as above; assay type: in vivo; conditions: Herbicide No.5 4.48 kg/ha alone, no antidote
Procedure: as §1, §2, §3, §5, §10

[17] = test system: corn; test: as above; assay type: in vivo; conditions: Herbicide No.5 4.48 kg/ha alone, no antidote
Procedure: as §1, §2, §3, §10

[18] = test system: corn; test: Example 6, Procedure II: Herbicide No. 1 + alachlor (No. 7) with antidotes; assay type: in vivo; conditions: Herbicides 1 and 7 applied PPI, Table 6
Procedure: as §1, §2, §3
This example was designed to investigate the antidotal efficacy of a plurality of antidotal compounds against a composition comprising Herbicide No. 1 in combination with Herbicide No. 7 (alachlor). The antidotal compounds used herein were Nos. 1, 2, 7, 13 and 15.
as §8

[19] = test system: corn; test: Example 18, Procedure II: Herbicide No. 1 + ERADICANE (EPTC + R-25788) with auxiliary antidotes; assay type: in vivo; conditions: Herbicide No. 1 + ERADICANE 8.96 kg/ha, PPI, Table 18
Procedure: as §1, §2, §3, §7
Test procedures were those of Procedure II above.

CCSC(=O)N(CC(C)C)CC(C)C [Herbicide No.10]
% Injury Corn ([1]; in vivo): 5%

CC1(C)CN2C(=O)CCC2(C)N(C(=O)C(Cl)Cl)C1 (stereo not drawn) [compound 14]
% Injury Corn [2]: 5%

O=C(C(Cl)Cl)N1CCCCN(C(=O)C(Cl)Cl)CCC1 [Antidote No. 8, 1,5-Diazacyclononane, 1,5-bis(dichloroacetyl)-]
safening of corn, assessment in words [1]: complete protection against corn injury

CCOCN(C(=O)CCl)c1c(C)cccc1CC [Herbicide No. 6, 2-Chloro-N-(ethoxymethyl)-6'-ethyl-o-acetoluidide, reference compound]
injury to corn ([3]; Herbicide No. 6 2.24 kg/ha, without an antidote): 25%

CCCOCCN(C(=O)CCl)c1c(CC)cccc1CC [Herbicide No.13]
% Injury Corn ([4]; Herbicide No.13 2.24 kg/ha alone, no antidote): 0%
% Injury BYG [5]: 100%
% Injury VL [6]: 5%

CC1c2ccccc2CCN1C(=O)C(Cl)Cl (stereo not drawn) [Antidote No. 12]
safening of corn, assessment in words [1]: complete protection against corn injury

C=CCN(CC=C)C(=O)C(Cl)Cl [Antidote No. 1, Acetamide, N,N-bis(2-propenyl)-α,α-dichloro]
safening of corn, assessment in words ([4]; Herbicide Nos. 1 and 13, Table 9): best safening effect across four treatments
safening of corn, assessment in words [7]: did not exhibit noticeable safening effect
% Injury Corn [8]: 50%
corn injury [9]: 25%
inhibition at 7.41 g/ha ([10]; Zea mays, pre-emergence, Herbicide No. 3 0.25 G/ha + Antidote No. 1 7.41 G/ha, read-out: corn injury, percent inhibition of growth): 43%
safening of corn, assessment in words ([11]; Herbicide Nos. 1 and 12, Table 7): best safening effect across four treatments
safening of corn, assessment in words [12]: outperformed the antidotes (2 and 13) of other chemistries

Cc1cccc(C)c1N(Cn1cccn1)C(=O)CCl [Herbicide No.14]
% Injury BYG [13]: 100%
% Injury VL [14]: 65%
% Injury Corn ([12]; Herbicide No.14 3.36 kg/ha alone, no antidote): 85%

CC(C)N(C(=O)CCl)c1ccccc1 [Herbicide No.5]
% Injury BYG [15]: 100%
% Injury VL [16]: 15%
% Injury Corn [17]: 0%

CC1(C(Cl)Cl)OCCO1 [Antidote No. 13, 1,3-Dioxolane, 2-(dichloromethyl)-2-methyl-]
safening of corn, assessment in words ([9]; Herbicide No. 1 + ERADICANE EXTRA, Table 19): most efficacious antidote across all four treatments
safening of corn, assessment in words [1]: best safening effect at the highest rate
safening of corn, assessment in words ([3]; Herbicide No. 1:Herbicide 6:Antidote 0.14:2.24:2.24 kg/ha): performed at commercial levels
safening of corn, assessment in words [18]: best safening effect across four treatments

O=C1OC(=O)c2cccc3cccc1c23 [Antidote No. 2, 1H, 3H-Naphtho [1,8-cd]pyran-1,3-dione]
safening of corn, assessment in words [7]: significantly reduced corn injury by Herbicides No. 1 and 3 at the highest rates of application, but not at lower rates
safening of corn, assessment in words ([3]; Herbicide No. 1:Herbicide 6:Antidote 0.56:2.24:2.24 kg/ha): performed at commercial levels
safening of corn, assessment in words ([10]; Herbicide Nos. 1-3 at the two highest rates): significantly reduced corn injury

O=C(C(Cl)Cl)N1CCOC12CCCCC2 [Antidote No. 7, 1-Oxa-4-azaspiro[4,5]decane, 4-(dichloroacetyl)-]
corn injury, assessment in words [19]: slightly lower
corn injury [9]: 25%
safening of corn, assessment in words [1]: complete protection against corn injury
% Injury Corn ([11]; Herbicide No.1 0.56 + No.12 3.36 kg/ha + antidote 2.24 kg/ha): 20%
safening of corn, assessment in words [12]: outperformed the antidotes (2 and 13) of other chemistries
